In patent US20250171434A1, “SEC61 INHIBITORS AND USE THEREOF” (KEZAR LIFE SCIENCES, INC., priority 2022, published 2025):
Like-named read-outs stand apart in the source and are kept apart here.

Key:
[1] = Liver Microsome Stability Assay, human; type: in vitro ADME; settings: human liver microsomes 1.0 mg/mL, 1.0 uM compound, 37° C., 1 mM NADPH
Method: (§1) Stability of a compound was assessed in the presence of liver microsomes from various sources—mouse, rat, monkey and human liver microsomes. 1.0 uM compound, 0.4% DMSO in 0.1 M Potassium Phosphate with 1.0 mg/mL liver microsomes, were incubated at 37° C. with or without 1 mM NADPH. The samples were quenched at 0, and 30 minutes.

[2] = Liver Microsome Stability Assay, rat; type: in vitro ADME; settings: rat liver microsomes 1.0 mg/mL, 1.0 uM compound, 37° C., 1 mM NADPH
Method: as §1

[3] = test system: IL-2-FL/Gaussia Luciferase; assay: Dox Inducible IL2-FL-Gluc Assay; type: cell-based
From the text: (§2) Flp-In 293 T-REx™ cells were transfected with pcDNA™5/FRT/TO plasmid inserted with cDNA encoding Gaussia Luciferase fused to the 3′ end of cDNA encoding full length IL-2 (amino acids 1-153). Transfected cells were selected for resistance to the selectable markers Hygromycin and Blasticidin to create a stable cell line that contained the IL-2-FL/Gaussia Luciferase cDNA insert whose expression was regulated under the T-REx™ system. The day before assay, cells were trypsinized and plated in 384-well tissue culture plates. The next day, compound dilutions in DMSO/media containing doxycycline were added to the wells and incubated at 37° C., 5% CO2.
(§3) For chemical structures that include one or more stereoisomers, but are illustrated without indicating stereochemistry, the assay data refers to a mixture of stereoisomers.

[4] = test system: IL6R-ss+10aa/Gaussia Luciferase; assay: Dox-induced IL-6R-ss-Gluc Assay; type: cell-based
From the text: as §2, with “pcDNATM5/FRT/TO” for “pcDNA™5/FRT/TO”, “IL6R signal sequence plus 10 amino” for “full length IL-2 (amino”, “(N-[…]-C).” for “1-153).”, “IL6R-ss+10aa/Gaussia” for “IL-2-FL/Gaussia”
as §3

CD47(ss + 10)Gluc = assay: Dox-Induced CD47-ss-Gluc Assay; type: cell-based
[5] = Liver Microsome Stability Assay, mouse; type: in vitro ADME; settings: mouse liver microsomes 1.0 mg/mL, 1.0 uM compound, 37° C., 1 mM NADPH
Method: as §1

[6] = test system: multiple myeloma cell line NCI-H929; assay: H929 Cell Viability Assay; type: cell-based, human; settings: for EC50: Homo sapiens
Method: The human multiple myeloma cell line NCI-H929 was cultured in Advanced RPMI 1640 media (Gibco®) supplemented with 6% fetal bovine serum, 2 mM Glutamine, and 1× Penicillin/Streptomycin. On the day of assay, cells were resuspended in RPMI 1640 media supplemented with 10% fetal bovine serum, 2 mM Glutamine, and 1× Penicillin/Streptomycin and plated in 384-well tissue culture plates and treated with compound dilutions in DMSO/media. Plates were incubated at 37° C., 5% CO2 for 48 hours. After 48 hours, Celltiter-Glo® (Promega) was added to each well and luciferase signal was quantified using Tecan Infinite M1000 Pro for cell viability determination.
as §3

[7] = test system: multiple myeloma cell line U266B1; assay: U266 Cell Viability Assay; type: cell-based; settings: Homo sapiens
Method: The human multiple myeloma cell line U266B1 was cultured in RPMI 1640 media supplemented with 10% fetal bovine serum, 2 mM Glutamine, and 1× Penicillin/Streptomycin. Cells were plated in 384-well tissue culture plates and treated with compound dilutions in DMSO/media. Plates were incubated at 37° C., 5% CO2 for 48 hours. After 48 hours, Celltiter-Glo® (Promega) was added to each well and luciferase signal was quantified using Tecan Infinite M1000 Pro for cell viability determination.
as §3

[8] = Liver Microsome Stability Assay, monkey; type: in vitro ADME; settings: monkey liver microsomes 1.0 mg/mL, 1.0 uM compound, 37° C., 1 mM NADPH
Method: as §1

[9] = test system: PD1-ss+10aa/Gaussia Luciferase; assay: Dox-Induced PD1-ss-Gluc Assay; type: cell-based
From the text: as §2, with “PD1 signal sequence plus 10 amino” for “full length IL-2 (amino”, “(N-[…]-C) (SEQ ID NO: 1).” for “1-153).”, “PD1-ss+10aa/Gaussia” for “IL-2-FL/Gaussia”
as §3

[10] = Flp-In 293 T-REx cells, 24 hours with doxycycline; Table 1; read-out: 24 hr Dox Inducible IL2FLGluc 293FRT/TO: Mean IC50
[11] = ratio of IC50s IL2/PD1; Table 1
[12] = Flp-In 293 T-REx cells, 24 hours with doxycycline; Table 1; read-out: 24hr Dox Inducible IL6R(ss + 10)Gluc 293FRT/TO: Mean IC50
[13] = ratio of IC50s IL6R/PD1; Table 1
[14] = Flp-In 293 T-REx cells, 24 hours with doxycycline; Table 1; read-out: 24 hr Dox Inducible CD47(ss + 10)Gluc 293FRT/TO: Mean IC50
[15] = NCI-H929 cells, 48 hours, Celltiter-Glo, read-out: 48 hr H929 Viability Celltiter-Glo: Mean EC50
[16] = U-266, U266B1 cells, 48 hours, Celltiter-Glo, read-out: 48 hr U266 Viability Celltiter-Glo: Mean EC50
[17] = Flp-In 293 T-REx cells, 24 hours with doxycycline; Table 1; read-out: 24 hr Dox Inducible PD1ssGluc 293FRT/TO: Mean IC50
[18] = read-out: 24 hr Dox Inducible IL2FLGluc 293FRT/TO: Mean IC50; Flp-In 293 T-REx cells, 24 hours with doxycycline; Table 1
[19] = read-out: 24hr Dox Inducible IL6R(ss + 10)Gluc 293FRT/TO: Mean IC50; Flp-In 293 T-REx cells, 24 hours with doxycycline; Table 1
[20] = read-out: 24 hr Dox Inducible CD47(ss + 10)Gluc 293FRT/TO: Mean IC50; Flp-In 293 T-REx cells, 24 hours with doxycycline; Table 1
[21] = NCI-H929, 48 h, read-out: 48 hr H929 Viability Celltiter-Glo: Mean EC50 (nM)
[22] = U-266, 48 h, read-out: 48 hr U266 Viability Celltiter-Glo: Mean EC50 (nM)
[23] = read-out: 24 hr Dox Inducible PD1ssGluc 293FRT/TO: Mean IC50; Flp-In 293 T-REx cells, 24 hours with doxycycline; Table 1

Compound	IC50 [3, 10] [µM]	IC50 [4, 12] [µM]	IC50 (CD47(ss + 10)Gluc; [14]) [µM]	EC50 [6, 15] [nM]	EC50 [7, 16] [nM]	IC50 [9, 17] [µM]	Liver Microsome Stability (Multiple Species): Human - % Remaining after 30 min w/ NADPH (%) [1] [%]	Liver Microsome Stability (Multiple Species): Rat - % Remaining after 30 min w/ NADPH (%) [2] [%]	24 hr Dox Inducible IL2FLGluc 293FRT/TO: IL2/PD1 [3, 11]	24hr Dox Inducible IL6R(ss + 10)Gluc 293FRT/TO: IL6R/PD1 [4, 13]	Liver Microsome Stability (Multiple Species): Mouse - % Remaining after 30 min w/ NADPH (%) [5] [%]	Liver Microsome Stability (Multiple Species): Monkey - % Remaining after 30 min w/ NADPH (%) [8] [%]	IC50 [3, 18] [µM]	IC50 [4, 19] [µM]	IC50 (CD47(ss + 10)Gluc; [20]) [µM]	EC50 [6, 21] [nM]	EC50 [7, 22] [nM]	IC50 [9, 23] [µM]	48 hr H929 Viability Celltiter-Glo: Mean EC50 (nM) ([6]; NCI-H929 cells, 48 hours, Celltiter-Glo)
CC(C(F)F)n1cnc(/C=C/c2csc(NC(=O)c3cc(Cl)cn3Cc3ccnc(F)c3)n2)c1 (stereo not drawn) [Compound A4, (E)-4-chloro-N-(4-(2-(1-(1,1-difluoropropan-2-yl)-1H-imidazol-4-yl)vinyl)thiazol-2-yl)-1-((2-fluoropyridin-4-yl)methyl)-1H-pyrrole-2-carboxamide]	–	–	–	–	–	–	3	73	21	11	80	4	12.7	6.77	6.23	> 23300	> 25000	0.604	–
O=C(Nc1nc(/C=C/c2cn(C(F)F)cn2)cs1)c1cc(Cl)cn1Cc1ccnc(F)c1 [Compound A5, (E)-4-chloro-N-(4-(2-(1-(difluoromethyl)-1H-imidazol-4-yl)vinyl)thiazol-2-yl)-1-((2-fluoropyridin-4-yl)methyl)-1H-pyrrole-2-carboxamide]	–	–	–	–	–	–	4	42	>57	>57	73	2	> 25	> 25	> 25	10100	16800	0.436	–
COc1cc(C(=O)Nc2nc(/C=C/c3ncn(C(C)C)c3Cl)c(Cl)s2)n(Cc2ccnc(F)c2)c1 [Compound A6, (E)-N-(5-chloro-4-(2-(5-chloro-1-isopropyl-1H-imidazol-4-yl)vinyl)thiazol-2-yl)-1-((2-fluoropyridin-4-yl)methyl)-4-methoxy-1H-pyrrole-2-carboxamide]	–	–	–	–	–	–	48	76	29	28	96	30	2.42	2.33	2.16	–	> 25000	0.085	I.A

Continued, in another order:

IC50 [3, 10] [µM]	IC50 [4, 12] [µM]	IC50 (CD47(ss + 10)Gluc; [14]) [µM]	EC50 [6, 15] [nM]	EC50 [7, 16] [nM]	IC50 [9, 17] [µM]	Compound	Liver Microsome Stability (Multiple Species): Human - % Remaining after 30 min w/ NADPH (%) [1] [%]	Liver Microsome Stability (Multiple Species): Rat - % Remaining after 30 min w/ NADPH (%) [2] [%]	24 hr Dox Inducible IL2FLGluc 293FRT/TO: IL2/PD1 [3, 11]	24hr Dox Inducible IL6R(ss + 10)Gluc 293FRT/TO: IL6R/PD1 [4, 13]	Liver Microsome Stability (Multiple Species): Mouse - % Remaining after 30 min w/ NADPH (%) [5] [%]	Liver Microsome Stability (Multiple Species): Monkey - % Remaining after 30 min w/ NADPH (%) [8] [%]	IC50 [3, 18] [µM]	IC50 [4, 19] [µM]	IC50 (CD47(ss + 10)Gluc; [20]) [µM]	EC50 [6, 21] [nM]	EC50 [7, 22] [nM]	IC50 [9, 23] [µM]	48 hr H929 Viability Celltiter-Glo: Mean EC50 (nM) ([6]; NCI-H929 cells, 48 hours, Celltiter-Glo)
2.02	1.89	1.86	> 25000	> 25000	0.03	CC(C)n1cnc(/C=C/c2csc(NC(=O)c3cc(Cl)cn3Cc3ccnc(F)c3)n2)c1Cl [Compound A1]	11	82	66	62	71	31	–	–	–	–	–	–	–
4.17	3.27	3.81	> 25000	> 25000	0.024	COc1cc(C(=O)Nc2nc(/C=C/c3ncn(C(C)C)c3Cl)cs2)n(Cc2ccnc(F)c2)c1 [Compound A2, (E)-N-(4-(2-(5-chloro-1-isopropyl-1H-imidazol-4-yl)vinyl)thiazol-2-yl)-1-((2-fluoropyridin-4-yl)methyl)-4-methoxy-1H-pyrrole-2-carboxamide]	15	72	170	133	68	35	–	–	–	–	–	–	–
12.2	4.68	15.2	4550	> 20200	1.76	O=C(Nc1nc(/C=C/c2cn(C(F)(F)F)cn2)cs1)c1cc(Cl)cn1Cc1ccnc(F)c1 [Compound A3, (E)-4-chloro-1-((2-fluoropyridin-4-yl)methyl)-N-(4-(2-(1-(trifluoromethyl)-1H-imidazol-4-yl)vinyl)thiazol-2-yl)-1H-pyrrole-2-carboxamide]	6	21	7	3	61	4	–	–	–	–	–	–	–
1.43	0.922	0.838	–	–	0.112	O=C(Nc1nc(/C=C/C2CCC(F)(F)CC2)cs1)c1cccn1Cc1ccnc(F)c1 [Compound B29, (E)-N-(4-(2-(4,4-difluorocyclohexyl)vinyl)thiazol-2-yl)-1-((2-fluoropyridin-4-yl)methyl)-1H-pyrrole-2-carboxamide]	–	–	12.0	8	–	–	–	–	–	–	–	–	–
